# Measurements reported in patent US12187728B2 (Raze Therapeutics, Inc., priority 2015, dated 2025).
# Target: T1, Human MTHFD2 (Homo sapiens, UniProt P13995)
# T1 construct: residues 36-350 in Uniport ID P13995; His6 (N); made in house; host or cells: E. coli
# T1 sequence (P13995 36-350): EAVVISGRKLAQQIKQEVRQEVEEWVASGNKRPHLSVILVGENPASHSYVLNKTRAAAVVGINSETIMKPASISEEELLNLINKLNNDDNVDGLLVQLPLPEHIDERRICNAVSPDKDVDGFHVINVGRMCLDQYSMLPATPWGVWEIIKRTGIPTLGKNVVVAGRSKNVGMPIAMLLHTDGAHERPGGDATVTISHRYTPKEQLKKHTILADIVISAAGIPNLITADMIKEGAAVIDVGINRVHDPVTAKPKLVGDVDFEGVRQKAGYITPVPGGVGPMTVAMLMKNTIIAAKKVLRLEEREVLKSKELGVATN
# Experiment: MTHFD2 Activity Assay (dehydrogenase activity, diaphorase/resazurin coupled fluorescence)
# Format: biochemical
# Conditions: inhibitory activity (IC50 and/or binding constant); 0.2 nM MTHFD2, 11 concentrations
# How it was run: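 Steps: compound + 0.2 nM enzyme, 15 min, pH 8.0 Hepes buffer; add 70 μM CH2-THF, 1 mM NAD+, 100 μM resazurin, diaphorase; 30 min; quench with EDTA; read fluorescence. Data normalized to DMSO (100%) and no-enzyme (0%) wells.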
row,IC50 [nM],Structure (SMILES)
1,10 to 1000,"Cn1c(Nc2ccnc(C3CC(C(N)=O)C3)c2)nc2c1c(=O)n(Cc1ccc(Cl)c(Cl)c1)c(=O)n2C (stereo not shown) [Example 319, 3-(4-(1-(3,4-dichlorobenzyl)-3,7-dimethyl-2,6-dioxo-2,3,6,7-tetrahydro-1H-purin-8-ylamino)pyridin-2-yl)cyclobutanecarboxamide]"
2,10 to 1000,"Cn1c(Nc2ccnc(C3CC(CO)C3)c2)nc2c1c(=O)n(Cc1ccc(Cl)c(Cl)c1)c(=O)n2C (stereo not shown) [Example 320, 1-(3,4-dichlorobenzyl)-8-(2-(3-(hydroxymethyl)cyclobutyl)pyridin-4-ylamino)-3,7-dimethyl-1H-purine-2,6(3H,7H)-dione]"
3,1000 to 5000,"Cn1c(Nc2ccc3c(c2)C(CCO)CC3)nc2c1c(=O)n(Cc1ccc(Cl)c(Cl)c1)c(=O)n2C (stereo not shown) [Example 323, 1-(3,4-dichlorobenzyl)-8-((3-(2-hydroxyethyl)-2,3-dihydro-1H-inden-5-yl)amino)-3,7-dimethyl-1H-purine-2,6(3H,7H)-dione]"
4,1000 to 5000,"Cn1c(Nc2ccc3c(c2)CC(CO)C3)nc2c1c(=O)n(Cc1ccc(Cl)c(Cl)c1)c(=O)n2C (stereo not shown) [Example 324, 1-(3,4-dichlorobenzyl)-8-((2-(hydroxymethyl)-2,3-dihydro-1H-inden-5-yl)amino)-3,7-dimethyl-1H-purine-2,6(3H,7H)-dione]"
5,10 to 1000,"Cc1ccc2cc(Cn3c(=O)c4c(nc(Nc5ccncc5)n4C)n(C)c3=O)[nH]c2c1 [Example 326, 3,7-dimethyl-1-((6-methyl-1H-indol-2-yl)methyl)-8-(pyridin-4-ylamino)-1H-purine-2,6(3H,7H)-dione]"
6,10 to 1000,"Cc1cccc2[nH]c(Cn3c(=O)c4c(nc(N[C@H]5C[C@H](CO)C5)n4C)n(C)c3=O)cc12 [Example 327, 8-((1R,3R)-3-(hydroxymethyl)cyclobutylamino)-3,7-dimethyl-1-((4-methyl-1H-indol-2-yl)methyl)-1H-purine-2,6(3H,7H)-dione]"
7,10 to 1000,"Cc1cccc2[nH]c(Cn3c(=O)c4c(nc(Nc5ccncc5)n4C)n(C)c3=O)cc12 [Example 328, 1-((4-methyl-1H-indol-2-yl)methyl)-3,7-dimethyl-8-(pyridin-4-ylamino)-1H-purine-2,6(3H,7H)-dione]"
8,10 to 1000,"CN(C)C(=O)CCc1cccc(Nc2nc3c(c(=O)n(Cc4cc5c(Cl)cccc5[nH]4)c(=O)n3C)n2C)n1 [Example 329, 3-(6-(1-((4-chloro-1H-indol-2-yl)methyl)-3,7-dimethyl-2,6-dioxo-2,3,6,7-tetrahydro-1H-purin-8-ylamino)pyridin-2-yl)-N,N-dimethylpropanamide]"
9,10 to 1000,"CNC(=O)CCc1cccc(Nc2nc3c(c(=O)n(Cc4cc5c(Cl)cccc5[nH]4)c(=O)n3C)n2C)n1 [Example 330, 3-(6-(1-((4-chloro-1H-indol-2-yl)methyl)-3,7-dimethyl-2,6-dioxo-2,3,6,7-tetrahydro-1H-purin-8-ylamino)pyridin-2-yl)-N-methylpropanamide]"
10,10 to 1000,"Cn1c(Nc2ccc(C(=O)O)cc2)nc2c1c(=O)n(Cc1cc3c(Cl)cccc3[nH]1)c(=O)n2C [Example 331, 4-[[1-[(4-chloro-1H-indol-2-yl)methyl]-3,7-dimethyl-2,6-dioxo-purin-8-yl]amino]benzoic acid]"
11,10 to 1000,"COc1cc(Nc2nc3c(c(=O)n(Cc4cc5c(Cl)cccc5[nH]4)c(=O)n3C)n2C)ccn1 [Example 333, 1-[(4-chloro-1H-indol-2-yl)methyl]-8-[(2-methoxy-4-pyridyl)amino]-3,7-dimethyl-purine-2,6-dione]"
12,1000 to 5000,"Cn1c(Nc2ccnc(C(F)(F)F)c2)nc2c1c(=O)n(Cc1cc3c(Cl)cccc3[nH]1)c(=O)n2C [Example 334, 1-[(4-chloro-1H-indol-2-yl)methyl]-8-[(2-trifluoromethyl-4-pyridyl)amino]-3,7-dimethyl-purine-2,6-dione]"
13,10 to 1000,"Cn1c(NS(C)(=O)=O)nc2c1c(=O)n(Cc1cc3c(Cl)cccc3[nH]1)c(=O)n2C [Example 336, N-[1-[(4-chloro-1H-indol-2-yl)methyl]-3,7-dimethyl-2,6-dioxo-purin-8-yl]methanesulfonamide]"
